Earlier results in US20090082295A1, “COMBINATIONS AND METHODS OF USING AN IMMUNOMODULATORY OLIGODEOXYNUCLEOTIDE” (PFIZER INC., priority 2005, published 2009).
Counter-ions that a name gives are not always drawn.

How the values were obtained:
axonal microtubules = conditions: intact tectal plates from mouse embryos
mitotic microtubules = conditions: intact tectal plates from mouse embryos
[1] = test system: topoisomerase I purified from human and rodent tumor cell lines; conditions: purified enzyme
mammalian cells = conditions: high concentrations
[2] = test system: rat mammary carcinoma induced by dimethylbenzanthracene (DMBA)
[3] = combination with cisplatin
[4] = test system: Lewis lung murine xenograft
[5] = test system: CALU-6 human lung xenograft
[6] = test system: LX-1 human lung xenograft
[7] = test system: xenotransplant models of colon cancer; conditions: nude (athymic) mice

Compound: CC[C@]1(O)C[C@H]2CN(CCc3c([nH]c4ccccc34)[C@@](C(=O)OC)(c3cc4c(cc3OC)N(C=O)[C@H]3[C@@](O)(C(=O)OC)[C@H](OC(C)=O)[C@]5(CC)C=CCN6CC[C@]43[C@@H]65)C2)C1 [vincristine]
- concentration producing depolymerization of axonal microtubules (axonal microtubules): 5 µM
- concentration inhibiting mitotic microtubule formation, inducing a blockade of cells at metaphase (mitotic microtubules): 2 µM

Compound: CCc1c2c(nc3ccc(O)cc13)-c1cc3c(c(=O)n1C2)COC(=O)[C@]3(O)CC [SN-38]
- potency as inhibitor of topoisomerase I relative to irinotecan [1]: approximately 1000 times

Compound: COc1cc([C@@H]2c3cc4c(cc3[C@@H](O[C@@H]3O[C@@H]5CO[C@@H](C)O[C@H]5[C@H](O)[C@H]3O)[C@H]3COC(=O)[C@H]23)OCO4)cc(OC)c1O [Etoposide, 4′-Demethylepipodophyllotoxin 9-[4,6-0-(R)-ethylidene-β-D-glucopyranoside]]
- concentration at which lysis of cells entering mitosis is observed (mammalian cells): ≥ 10 µg/mL

Compound: CC/C(=C(\c1ccccc1)c1ccc(OCCN(C)C)cc1)c1ccccc1 [Tamoxifen, (Z)2-[4-(1,2-diphenyl-1-butenyl)phenoxy]-N, Ndimethylethanamine 2-hydroxy-1,2,3-propanetricarboxylate (1:1)]
- effect on DMBA-induced mammary carcinoma [2]: inhibits the induction of rat mammary carcinoma induced by dimethylbenzanthracene (DMBA) and causes the regression of already established DMBA-induced tumors

Compound: CCC1=C[C@@H]2CN(C1)Cc1c([nH]c3ccccc13)[C@@](C(=O)OC)(c1cc3c(cc1OC)N(C)[C@H]1[C@@](O)(C(=O)OC)[C@H](OC(C)=O)[C@]4(CC)C=CCN5CC[C@]31[C@@H]54)C2 (relative stereo) [vinorelbine, 3′,4′-didehydro-4′-deoxy-C′-norvincaleukoblastine[R—(R*,R*)-2,3-dihydroxybutanedioate (1:2) (salt)]]
- concentration producing depolymerization of axonal microtubules (axonal microtubules): 40 µM
- concentration inhibiting mitotic microtubule formation, inducing a blockade of cells at metaphase (mitotic microtubules): 2 µM

Compound: CC[C@]1(O)C[C@@H]2CN(CCc3c([nH]c4ccccc34)[C@@](C(=O)OC)(c3cc4c(cc3OC)N(C)[C@H]3[C@@](O)(C(=O)OC)[C@H](OC(C)=O)[C@]5(CC)C=CCN6CC[C@]43[C@@H]65)C2)C1 [vinblastine]
- concentration producing depolymerization of axonal microtubules (axonal microtubules): 30 µM
- concentration inhibiting mitotic microtubule formation, inducing a blockade of cells at metaphase (mitotic microtubules): 2 µM

Compound: Nc1ccn([C@@H]2O[C@H](CO)[C@@H](O)C2(F)F)c(=O)n1 [Gemcitabine, 2′-deoxy-2′,2′-difluorocytidine monohydrochloride (β-isomer)]
- activity in combination with cisplatin (NCI-H460 xenograft): minimal activity
- activity in combination with cisplatin (NCI-H520 xenograft): minimal activity
- activity with cisplatin in vitro [3]: dose-dependent synergistic activity
- interaction with cisplatin [4]: synergistic
- activity in combination with cisplatin [5]: showed activity
- activity in combination with cisplatin [6]: showed activity

Compound: bevacizumab: recombinant humanized monoclonal IgG1 antibody that binds human VEGF
- effect on microvascular growth and metastatic disease progression [7]: reduction of microvascular growth and inhibition of metastatic disease progression
